≈ marks a conversion by molar mass, not a printed value.
What was measured:
Assay type in all cases: functional
Streptococcus pneumoniae = assay: Antibacterial activity against Streptococcus pneumoniae MTCC 1936 assessed as growth inhibition after overnight incubation by NCCLS broth microdilution method
Candida albicans = assay: Antifungal activity against Candida albicans MTCC 227 assessed as growth inhibition after overnight incubation by NCCLS broth microdilution method
Aspergillus fumigatus = assay: Antifungal activity against Aspergillus fumigatus MTCC 3008 assessed as growth inhibition after overnight incubation by NCCLS broth microdilution method
Escherichia coli = assay: Antibacterial activity against Escherichia coli MTCC 443 assessed as growth inhibition after overnight incubation by NCCLS broth microdilution method
Vibrio cholerae = assay: Antibacterial activity against Vibrio cholerae MTCC 3906 assessed as growth inhibition after overnight incubation by NCCLS broth microdilution method
Salmonella typhi = assay: Antibacterial activity against Salmonella enterica subsp. enterica serovar Typhi MTCC 98 assessed as growth inhibition after overnight incubation by NCCLS broth microdilution method
Bacillus subtilis = assay: Antibacterial activity against Bacillus subtilis MTCC 441 assessed as growth inhibition after overnight incubation by NCCLS broth microdilution method
Clostridium tetani = assay: Antibacterial activity against Clostridium tetani MTCC 449 assessed as growth inhibition after overnight incubation by NCCLS broth microdilution method

| Structure (SMILES) | MIC (Streptococcus pneumoniae) [µg/mL] | MIC (Candida albicans) [µg/mL] | MIC (Aspergillus fumigatus) [µg/mL] | MIC (Escherichia coli) [µg/mL] | MIC (Vibrio cholerae) [µg/mL] | MIC (Salmonella typhi) [µg/mL] | MIC (Bacillus subtilis) [µg/mL] | MIC (Clostridium tetani) [µg/mL] |
| --- | --- | --- | --- | --- | --- | --- | --- | --- |
| CCOC(=O)C1=C(N)N(Nc2ccc(C)cc2)C2=C(C(=O)CC(C)(C)C2)C1c1cc2cc(Cl)ccc2nc1Cl (centres undefined) | 100 (≈ 177 µM) | 250 (≈ 442 µM) | > 1000 | 500 (≈ 884 µM) | 500 (≈ 884 µM) | 500 (≈ 884 µM) | 250 (≈ 442 µM) | 500 (≈ 884 µM) |
| CCOC(=O)C1=C(N)N(Nc2ccc(F)cc2)C2=C(C(=O)CC(C)(C)C2)C1c1cc2cc(Cl)ccc2nc1Cl (centres undefined) | 500 (≈ 878 µM) | 1000 (≈ 1760 µM) | > 1000 | 200 (≈ 351 µM) | 500 (≈ 878 µM) | 250 (≈ 439 µM) | 500 (≈ 878 µM) | 250 (≈ 439 µM) |
| CCOC(=O)C1=C(N)N(Nc2ccc(C)cc2)C2=C(C(=O)CC(C)(C)C2)C1c1cc2cc(OC)ccc2nc1Cl (centres undefined) | 100 (≈ 178 µM) | 500 (≈ 891 µM) | > 1000 | 125 (≈ 223 µM) | 500 (≈ 891 µM) | 62.5 (≈ 111 µM) | 200 (≈ 356 µM) | 125 (≈ 223 µM) |
| CCOC(=O)C1=C(N)N(Nc2ccc(F)cc2)C2=C(C(=O)CC(C)(C)C2)C1c1cc2cc(C)ccc2nc1Cl (centres undefined) | 200 (≈ 364 µM) | 100 (≈ 182 µM) | > 1000 | 100 (≈ 182 µM) | 100 (≈ 182 µM) | 200 (≈ 364 µM) | 200 (≈ 364 µM) | 100 (≈ 182 µM) |
| CCOC(=O)C1=C(N)N(Nc2ccc(Br)cc2)C2=C(C(=O)CC(C)(C)C2)C1c1cc2cc(Cl)ccc2nc1Cl (centres undefined) | 200 (≈ 317 µM) | 500 (≈ 793 µM) | 1000 (≈ 1590 µM) | 200 (≈ 317 µM) | 250 (≈ 397 µM) | 100 (≈ 159 µM) | 200 (≈ 317 µM) | 250 (≈ 397 µM) |
| CCOC(=O)C1=C(N)N(Nc2ccc(OC)cc2)C2=C(C(=O)CC(C)(C)C2)C1c1cc2cc(OC)ccc2nc1Cl (centres undefined) | 250 (≈ 433 µM) | 1000 (≈ 1730 µM) | 500 (≈ 866 µM) | 200 (≈ 347 µM) | 250 (≈ 433 µM) | 200 (≈ 347 µM) | 250 (≈ 433 µM) | 250 (≈ 433 µM) |
| CCOC(=O)C1=C(N)N(Nc2ccc(F)cc2)C2=C(C(=O)CC(C)(C)C2)C1c1cc2cc(OC)ccc2nc1Cl (centres undefined) | 250 (≈ 442 µM) | 1000 (≈ 1770 µM) | > 1000 | 125 (≈ 221 µM) | 250 (≈ 442 µM) | 200 (≈ 354 µM) | 200 (≈ 354 µM) | 250 (≈ 442 µM) |
| CCOC(=O)C1=C(N)N(Nc2ccccc2)C2=C(C(=O)CC(C)(C)C2)C1c1cc2ccccc2nc1Cl (centres undefined) | 200 (≈ 387 µM) | 250 (≈ 484 µM) | > 1000 | 50 (≈ 96.7 µM) | 500 (≈ 967 µM) | 200 (≈ 387 µM) | 200 (≈ 387 µM) | 500 (≈ 967 µM) |
| COC1=CC(=O)C[C@@H](C)[C@]12Oc1c(Cl)c(OC)cc(OC)c1C2=O [GRISEOFULVIN] |  | 500 (≈ 1420 µM) | 100 (≈ 283 µM) |  |  |  |  |  |
| CCOC(=O)C1=C(N)N(Nc2ccc(Br)cc2)C2=C(C(=O)CC(C)(C)C2)C1c1cc2ccccc2nc1Cl (centres undefined) | 25 (≈ 42 µM) | > 1000 | > 1000 | 100 (≈ 168 µM) | 500 (≈ 839 µM) | 50 (≈ 83.9 µM) | 250 (≈ 420 µM) | 500 (≈ 839 µM) |
| CCOC(=O)C1=C(N)N(Nc2ccc(F)cc2)C2=C(C(=O)CC(C)(C)C2)C1c1cc2ccccc2nc1Cl (centres undefined) | 200 (≈ 374 µM) | 250 (≈ 467 µM) | 500 (≈ 935 µM) | 100 (≈ 187 µM) | 200 (≈ 374 µM) | 100 (≈ 187 µM) | 200 (≈ 374 µM) | 200 (≈ 374 µM) |
| CCn1cc(C(=O)O)c(=O)c2cc(F)c(N3CCNCC3)cc21 [NORFLOXACIN] | 10 (≈ 31.3 µM) |  |  | 10 (≈ 31.3 µM) | 10 (≈ 31.3 µM) | 10 (≈ 31.3 µM) | 100 (≈ 313 µM) | 50 (≈ 157 µM) |
| CCOC(=O)C1=C(N)N(Nc2ccc(Cl)cc2)C2=C(C(=O)CC(C)(C)C2)C1c1cc2ccccc2nc1Cl (centres undefined) | 200 (≈ 363 µM) | 1000 (≈ 1810 µM) | 250 (≈ 453 µM) | 200 (≈ 363 µM) | 250 (≈ 453 µM) | 250 (≈ 453 µM) | 200 (≈ 363 µM) | 125 (≈ 227 µM) |
| CCOC(=O)C1=C(N)N(Nc2ccccc2)C2=C(C(=O)CC(C)(C)C2)C1c1cc2cc(C)ccc2nc1Cl (centres undefined) | 250 (≈ 471 µM) | 500 (≈ 942 µM) | > 1000 | 100 (≈ 188 µM) | 100 (≈ 188 µM) | 250 (≈ 471 µM) | 500 (≈ 942 µM) | 500 (≈ 942 µM) |
| O=C(O)c1cn(C2CC2)c2cc(N3CCNCC3)c(F)cc2c1=O [CIPROFLOXACIN] | 50 (≈ 151 µM) |  |  | 25 (≈ 75.4 µM) | 25 (≈ 75.4 µM) | 25 (≈ 75.4 µM) |  |  |
| CC1(C)S[C@@H]2[C@H](NC(=O)[C@H](N)c3ccccc3)C(=O)N2[C@H]1C(=O)O [AMPICILLIN] | 100 (≈ 286 µM) |  |  | 100 (≈ 286 µM) | 100 (≈ 286 µM) | 100 (≈ 286 µM) | 250 (≈ 715 µM) | 250 (≈ 715 µM) |

— ChEMBL document CHEMBL3046070, “New N-arylamino biquinoline derivatives: microwave-assisted synthesis and their antimicrobial activities” (2013)
